According to US9145398B2, “Methods of treating CXCR4-expressing cancers” (University of Louisville Research Foundation, Inc., priority 2010, dated 2015):
“Also recorded” adds a separate entry of the source.

How the values were obtained:
hCXCR4-GFP [1] = assay: Chemotaxis assay, hCXCR4-GFP expressing 300.19 cells, CXCL12; type: cell-based, human; conditions: 50 μM test compound
Description: (§1) Cells were suspended in chemotaxis buffer (RPMI 1640, 1% fetal bovine serum, 1 mM HEPES) at a concentration of 1×10^7 cells per ml. Cell chemotaxis was determined by examining the migration of the 300.19 cells in response to administration of 50 μM test compound plus an optimized concentration of CXCL12 using a chemotaxis assay that was previously described in Basu et al. (Basu et al., Critical role for polar residues in coupling leukotriene B4 binding to signal transduction in BLT1, J. Biol. Chem. (2007) Vol. 282, pp. 10005-17). 100 μL of 300.19 cells from the above cell suspension were placed in the upper chamber of a Transwell support (Corning Costar, Cambridge, Mass.) and were separated by a 5 micron filter from a bottom chamber containing 50 μM test compound plus the optimized concentration of CXCL12 in a final bottom chamber volume of 600 μl. After 3 h of incubation at 37° C. in 5% CO2, the upper chamber was removed and cells in the lower chamber were counted in a Bürker chamber. Cell counts for all samples were normalized to a CXCL12 plus DMSO control and results are reported using this normalized measure, referred to herein as the chemotaxis index. In some instances, the IC50 concentration (i.e., the concentration at which the chemotaxis index is reduced to 50% of the chemotaxis index of the CXCL12 plus DMSO control) of the test compounds was determined. All assays were performed a minimum of four times; error bars represent the standard deviation of the mean.

BLT1 [2] = molecular target: T1, BLT1 (Homo sapiens, UniProt Q15722); assay: Intracellular calcium mobilization assay, cells expressing BLT1, LTB4; type: cell-based; conditions: for IC50: LTB4-mediated; for normalized Δ fluorescence (BLT1, intracellular calcium mobilization): 50 μM test compound, LTB4
T1 sequence (Q15722 whole entry, species assumed): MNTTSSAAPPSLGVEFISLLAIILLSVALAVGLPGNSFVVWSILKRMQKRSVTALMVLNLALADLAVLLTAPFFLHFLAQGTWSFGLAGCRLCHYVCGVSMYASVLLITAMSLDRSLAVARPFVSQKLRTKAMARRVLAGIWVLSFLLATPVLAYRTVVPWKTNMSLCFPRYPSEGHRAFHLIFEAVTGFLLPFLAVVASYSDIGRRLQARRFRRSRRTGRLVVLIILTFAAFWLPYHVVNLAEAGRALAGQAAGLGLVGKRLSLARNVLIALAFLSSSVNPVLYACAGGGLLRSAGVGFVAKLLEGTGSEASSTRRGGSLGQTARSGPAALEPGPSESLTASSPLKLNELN
Description: (§2) Intracellular Calcium Mobilization Assay Method: The intracellular calcium mobilization assay used 300.19 cells which stably expressed hCXCR4-GFP, as described previously in Pello et al. (2008). Cells were loaded with INDO-I and then pretreated with the 50 μM of the test compound for 60 seconds prior to stimulation of intracellular calcium mobilization with an optimized concentration of CXCL12. […] The value Δ florescence is the difference between (a) the fluorescence ratio from cells before exposure to CXCL12 at its optimized concentration and (b) the fluorescence ratio from cells following stimulation with the optimized concentration of CXCL12. Decreases in Δ florescence correspond to decreases in intracellular calcium mobilization, and therefore, decreased signaling. As CXCL12 concentration was optimized for each test compound, results are presented as normalized Δ florescence which is Δ fluorescence divided by the fluorescence ratio of optimized CXCL12-only stimulation. In some instances, the IC50 concentration (concentration at which intracellular calcium mobilization is reduced to 50% of the Δ fluorescence of the CXCL12 plus DMSO control) of the test compounds was determined. All assays were performed a minimum of four times; error bars represent the standard deviation of the mean.
At 50 μM test compound concentrations in BLT1-expressing cells, I-44 (0.040) and I-46 (0.017) inhibited intracellular calcium mobilization.

300.19 cells = assay: Cytotoxicity assay, propidium iodide based flow cytometry; type: cell-based; conditions: for cytotoxicity, percentage of cells staining positive for PI: 50 μM test compound
Description: Cytotoxicity Assay Method: To determine the potential for test compound cytotoxicity to influence cell intracellular calcium mobilization and chemotaxis, cell cytotoxicity was assessed using propidium iodide (PI) based flow cytometry. Propidium iodine is impermeable to intact cell membranes and thus its lack of intercalation into DNA (which increases PI fluorescence) is a positive indicator of cell viability. Cytotoxicity values are presented as percentage of cells staining positive for PI. Lower values of fluorescence indicate less cytotoxicity. All assays were performed a minimum of four times; error bars represent the standard deviation of the mean.

hCXCR4-GFP [3] = molecular target: T2, hCXCR4-GFP (Homo sapiens, UniProt P61073); assay: Intracellular calcium mobilization assay, hCXCR4-GFP expressing 300.19 cells, CXCL12; type: cell-based; design: IC50 of intracellular calcium mobilization, CXCR4; other: CXCL12-mediated; other: 50 μM test compound; normalized Δ fluorescence (CXCR4, intracellular calcium mobilization); other: 50 μM test compound, 60 seconds pretreatm; conditions: for IC50: CXCL12-mediated, read-out: IC50 of intracellular calcium mobilization, CXCR4; for normalized Δ fluorescence (CXCR4, intracellular calcium mobilization): 50 μM test compound, 60 seconds pretreatment, optimized CXCL12 (AMD3100 concentration not given)
T2 sequence (P61073 whole entry): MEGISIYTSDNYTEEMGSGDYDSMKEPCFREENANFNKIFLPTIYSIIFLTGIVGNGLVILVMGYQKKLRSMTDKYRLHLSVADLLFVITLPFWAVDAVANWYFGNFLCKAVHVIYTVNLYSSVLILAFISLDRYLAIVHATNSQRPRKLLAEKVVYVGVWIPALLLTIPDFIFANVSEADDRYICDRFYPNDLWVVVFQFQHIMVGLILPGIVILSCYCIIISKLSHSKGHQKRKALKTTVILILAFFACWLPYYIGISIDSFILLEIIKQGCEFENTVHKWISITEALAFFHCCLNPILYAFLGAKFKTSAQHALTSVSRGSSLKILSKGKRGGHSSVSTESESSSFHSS
Description: as §2

hCXCR4-GFP [4] = assay: as above; type: cell-based, human; conditions: for difference between CXCR4- and BLT1-mediated intracellular calcium mobilization: 50 μM test compound
Description: as §2

hCXCR4-GFP [5] = molecular target: T2, hCXCR4-GFP; assay: Chemotaxis assay, hCXCR4-GFP expressing 300.19 cells, CXCL12; type: cell-based
Description: as §1

TC-1 tumor cells = type: in vivo; conditions: 5 mg/kg i.p. every day for 21 days; versus PBS or Vehicle controls
Excerpt: Development of Animal Model for CXCR4 Dependent Cancer Metastasis in Lungs: To establish a CXCR4 dependent lung tumor metastasis model, we first screened several cancer cell lines that are known to metastasize to lungs in mice models to determine which cancer cell lines endogenously express CXCR4 receptor. The mice cell lines screened were Lewis lung carcinoma, B16F10 melanoma, and TC-1 cervical carcinoma. Mice cell lines were screened using flow cytometry-based surface receptor staining using a fluorochrome labeled antibody to mouse CXCR4 receptor. […] The TC-1 cell line was generated by transfection of murine lung squamous epithelial cells by Human pappillomavirus (HPV) oncogenes E6, E7, and activated Ras.
5 mg/kg body weight of AMD3100, I-28, I-36, or I-38 were also injected at the same dose intra-peritoneal (i.p.) every day for 21 days starting from the day before the tumor cell injection. Mice were sacrificed and lungs were perfused and collected on day 21 post tumor challenge. Lungs were stored in formalin for 16 hrs and then transferred into 70% ethanol until the lung lobes became lucid. All five lung lobes were separated. Tumors were counted using a magnifying glass or a microscope. Tumor sizes were measured using a digital caliper. The total number of tumors counted in all five lung lobes of an individual mouse is reported as the tumor incidence. Mean tumor sizes were added together to calculate cumulative tumor size, which is reported as the tumor burden for each mouse.

BLT1 [6] = molecular target: T1, BLT1; assay: Chemotaxis assay, cells expressing BLT1, LTB4; type: cell-based; conditions: 50 μM test compound, LTB4-induced
Description: as §1
To examine specificity of some of the compounds for CXCR4, their activity was tested against a non-family member class A G protein-coupled receptor, BLT1. […] I-38 and I-43 inhibited BLT1-mediated chemotaxis (0.23) and (0.045) to about the same extent as CXCR4-mediated chemotaxis (0.21) and (0.064), respectively.

In the case of `CCOc1ccc(NCC(O)Cn2c3ccccc3c3ccccc32)cc1` (centres unmarked) [Compound I-16, 1-carbazol-9-yl-3-(4-ethoxyphenyl)amino-propan-2-ol], the “difference between CXCR4- and BLT1-mediated chemotaxis” value (hCXCR4-GFP [1]) is reported as “small differences”, the IC50 (BLT1 [2]) is reported as 30 µM and the “cytotoxicity at 10 μM” value (300.19 cells) is reported as “retained cytotoxicity”. For the same compound, the “cytotoxicity, percentage of cells staining positive for PI” value (from here on “cytotoxicity, percentage”) (300.19 cells) was 67.9% and the IC50 (hCXCR4-GFP [3]) was 35 µM.
For `COC(=O)c1ccc(NC(=O)c2ccc3nc(-c4ccccn4)c(-c4ccccn4)nc3c2)cc1` [Compound I-39, methyl 4-(2,3-di(pyridin-2-yl)quinoxaline-6-carboxamido)benzoate], the “normalized Δ fluorescence (CXCR4, intracellular calcium mobilization)” value (hCXCR4-GFP [3]) was 0.31.
`C(=C\N1CCCC1)/c1nnnn1-c1ccc2ccccc2c1` [Compound I-2, 1-(2-naphthyl)-5-(2-pyrrolidin-1-ylvinyl)tetrazole] was tested, and the “difference between CXCR4- and BLT1-mediated intracellular calcium mobilization” value (hCXCR4-GFP [4]) was “no significant difference”, the IC50 (BLT1 [2]) was 40 µM and the “cytotoxicity at 10 μM” value (300.19 cells) was “retained cytotoxicity”. The “cytotoxicity, percentage” value (300.19 cells) was 63.5% and the IC50 (hCXCR4-GFP [3]) was 45 µM.
In the case of `CCc1ccc(OCCNc2cc(N3CCNC(C)C3)ccc2[N+](=O)[O-])cc1` (centres unmarked) [Compound I-4, N-[2-(4-ethylphenoxy)ethyl]-5-(3-methylpiperazin-1-yl)-2-nitro-aniline], the “difference between CXCR4- and BLT1-mediated intracellular calcium mobilization” value (hCXCR4-GFP [4]) is reported as “no significant difference”, the “difference between CXCR4- and BLT1-mediated chemotaxis” value (hCXCR4-GFP [1]) is reported as “small differences” and the IC50 (BLT1 [2]) is reported as 40 µM. For the same compound, the “cytotoxicity at 5 μM” value (300.19 cells; 5 μM) was “maintained cytotoxicity”, the “cytotoxicity, percentage” value (300.19 cells) was 98.8% and the IC50 (hCXCR4-GFP [3]) was 45 µM.
`CCOC(=O)c1c(C)[nH]c(C(=O)COC(=O)c2c(-c3ccccc3)noc2C)c1C` [Compound I-32, [2-(4-ethoxycarbonyl-3,5-dimethyl-1H-pyrrol-2-yl)-2-oxo-ethyl]5-methyl-3-phenyl-isoxazole-4-carboxylate] was tested, and the “difference between CXCR4- and BLT1-mediated chemotaxis” value (hCXCR4-GFP [1]) was “small differences”.
With `COc1ccc(NCc2nc3ccccc3n2CCOc2ccccc2C)cc1` [Compound I-7, N-((1-(2-(o-tolyloxy)ethyl)-1H-benzo[d]imidazol-2-yl)methyl)-4-methoxybenzenamine] the “cytotoxicity at 10 μM” value (300.19 cells) was “retained cytotoxicity” and the “cytotoxicity, percentage” value (300.19 cells) was 53.4%.
With `N=c1n(CCN2CCCCC2)c2ccccc2n1CC(O)COc1ccc(Cl)cc1` (centres unmarked) [Compound I-5, 1-(4-chlorophenoxy)-3-[2-imino-3-[2-(1-piperidyl)ethyl]benzoimidazol-1-yl]-propan-2-ol] the “difference between CXCR4- and BLT1-mediated chemotaxis” value (hCXCR4-GFP [1]) was “small differences”.
In the case of `c1cc(CN2CCCNCCNCCCNCC2)ccc1CN1CCCNCCNCCCNCC1` [AMD3100, reference compound], the inhibition of chemotaxis (hCXCR4-GFP [5]; concentrations ranging from 50 nM to 100 nM, data not shown) is reported as “completely inhibited”, the “normalized Δ fluorescence (CXCR4, intracellular calcium mobilization)” value (hCXCR4-GFP [3]) is reported as 0.51 and the “TC-1 metastatic tumor incidence and burden in lungs” value (TC-1 tumor cells) is reported as “reduced mice TC-1 metastatic tumor incidence and burden in lungs; also recorded: metastasis of TC-1 was significantly inhibited”.
For `COc1ccc(-c2cc(-c3ccccc3)cc3sc(/C(N)=N\C#N)c(N)c23)cc1` [Compound I-44, (E)-3-amino-N′-cyano-4-(4-methoxyphenyl)-6-phenylbenzo[b]thiophene-2-carboxamidine], the “normalized Δ fluorescence (BLT1, intracellular calcium mobilization)” value (BLT1 [2]) was 0.040, the “cytotoxicity, percentage” value (300.19 cells) was 99.8% and the “normalized Δ fluorescence (CXCR4, intracellular calcium mobilization)” value (hCXCR4-GFP [3]) was 0.29.
With `CCOc1ccc(NCc2nc3ccccc3n2CCOc2ccccc2)cc1` [Compound I-8, 4-ethoxy-N-((1-(2-phenoxyethyl)-1H-benzo[d]imidazol-2-yl)methyl)benzenamine] the “difference between CXCR4- and BLT1-mediated chemotaxis” value (hCXCR4-GFP [1]) was “small differences”.
For `O=C(/C=C/c1ccccc1)NC(=S)Nc1cccc(-c2nc3ncccc3o2)c1` [Compound I-40, 1-(3-(oxazolo[4,5-b]pyridin-2-yl)phenyl)-3-((E)-3-phenylacryloyl)thiourea], the “cytotoxicity, percentage” value (300.19 cells) was 88.3%.
`CN1C/C(=C/c2cccnc2)C(=O)/C(=C/c2cccnc2)C1` [Compound I-43, (3E,5Z)-1-methyl-3,5-bis((pyridin-3-yl)methylene)piperidin-4-one] was tested, and the “chemotaxis index (CXCR4-mediated)” value (hCXCR4-GFP [5]; 50 μM test compound plus optimized CXCL12, normalized to CXCL12 plus DMSO control) was 0.064, the IC50 (hCXCR4-GFP [5]; hCXCR4-GFP 300.19 cells, CXCL12) was 20 µM and the “chemotaxis index (BLT1-mediated)” value (BLT1 [6]) was 0.045.
For `CCC(=O)NCCNc1nc2cc(C)cc(C)c2cc1C#N` [Compound I-13, N-[2-[(3-cyano-5,7-dimethyl-2-quinolyl)amino]ethyl]propanamide], the “difference between CXCR4- and BLT1-mediated intracellular calcium mobilization” value (hCXCR4-GFP [4]) was “no significant difference”, the IC50 (BLT1 [2]) was 2.5 µM and the IC50 (hCXCR4-GFP [3]) was 5 µM.
`CCOc1ccc(NCC(O)Cn2c3ccccc3n3c(=O)cc(C)c(C#N)c23)cc1` (centres unmarked) [Compound I-15, 5-[3-[(4-ethoxyphenyl)amino]-2-hydroxypropyl]-1,5-dihydro-3-methyl-1-oxo-pyrido[1,2-a]benzimidazole-4-carbonitrile] was tested, and the “fold greater inhibition of CXCR4-mediated than BLT1-mediated intracellular calcium mobilization” value (hCXCR4-GFP [4]; from normalized Δ fluorescence) was roughly 3 fold, the “normalized Δ fluorescence (BLT1, intracellular calcium mobilization)” value (BLT1 [2]) was 0.16 and the IC50 (BLT1 [2]) was 30 µM. The “normalized Δ fluorescence (CXCR4, intracellular calcium mobilization)” value (hCXCR4-GFP [3]) was 0.45 and the IC50 (hCXCR4-GFP [3]) was 50 µM.
`C=C(C)C1CC=C(CN(CCCN(C)C)CCCN(C)C)CC1` (centres unmarked) [Compound I-6, N-(3-dimethylaminopropyl)-N-[(4-isopropenyl-1-cyclohexenyl)methyl]-N′,N′-dimethyl-propane-1,3-diamine] was tested, and the “difference between CXCR4- and BLT1-mediated chemotaxis” value (hCXCR4-GFP [1]) was “small differences”.
For `COc1ccccc1C(=O)OCCNc1nc2cc(C)cc(C)c2cc1C#N` [Compound I-12, 2-[(3-cyano-5,7-dimethyl-2-quinolyl)amino]ethyl 2-methoxybenzoate], the “difference between CXCR4- and BLT1-mediated intracellular calcium mobilization” value (hCXCR4-GFP [4]) was “no significant difference”, the IC50 (BLT1 [2]) was 2.5 µM and the IC50 (hCXCR4-GFP [3]) was 5 µM.
